Assay results as given in ChEMBL document CHEMBL4052647, “Synthesis and pharmacological evaluation of novel chromone derivatives as balanced multifunctional agents against Alzheimer's disease” (Bioorg Med Chem, 2017).
Active and inactive are the calls of the source. The rule behind the calls is not given here.

How the values were obtained:
[1] = target: T1, Amine oxidase [flavin-containing] A (Homo sapiens, UniProt P21397); experiment: Inhibition of recombinant human MAO-A expressed in baculovirus infected BTI insect cells using p-tyramine as substrate pretreated for 15 mins followed by substrate addition after 20 mins by Amplex red reagent based fluorimetric method
T1 sequence (P21397 whole entry): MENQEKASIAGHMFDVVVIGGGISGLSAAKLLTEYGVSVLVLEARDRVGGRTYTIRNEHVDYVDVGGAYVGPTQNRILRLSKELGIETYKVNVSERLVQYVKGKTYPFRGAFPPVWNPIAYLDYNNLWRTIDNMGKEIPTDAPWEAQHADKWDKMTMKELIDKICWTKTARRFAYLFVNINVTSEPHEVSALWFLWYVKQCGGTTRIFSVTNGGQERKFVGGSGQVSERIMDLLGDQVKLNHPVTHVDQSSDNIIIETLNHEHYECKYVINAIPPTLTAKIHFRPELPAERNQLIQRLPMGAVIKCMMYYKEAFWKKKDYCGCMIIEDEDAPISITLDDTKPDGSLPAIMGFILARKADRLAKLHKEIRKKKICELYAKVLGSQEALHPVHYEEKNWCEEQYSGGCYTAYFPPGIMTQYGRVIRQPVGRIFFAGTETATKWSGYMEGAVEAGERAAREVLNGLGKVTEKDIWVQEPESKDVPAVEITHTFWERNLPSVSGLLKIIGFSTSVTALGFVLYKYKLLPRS

PC-12 [2] = experiment: Cytotoxicity against rat PC12 cells at 20 uM after 24 hrs by MTT assay; format: cell-based; conditions: pc-12, 24 h
[3] = target: T2, Amine oxidase [flavin-containing] B (Homo sapiens, UniProt P27338); experiment: biochemical; format: cell-based
T2 sequence (P27338 whole entry): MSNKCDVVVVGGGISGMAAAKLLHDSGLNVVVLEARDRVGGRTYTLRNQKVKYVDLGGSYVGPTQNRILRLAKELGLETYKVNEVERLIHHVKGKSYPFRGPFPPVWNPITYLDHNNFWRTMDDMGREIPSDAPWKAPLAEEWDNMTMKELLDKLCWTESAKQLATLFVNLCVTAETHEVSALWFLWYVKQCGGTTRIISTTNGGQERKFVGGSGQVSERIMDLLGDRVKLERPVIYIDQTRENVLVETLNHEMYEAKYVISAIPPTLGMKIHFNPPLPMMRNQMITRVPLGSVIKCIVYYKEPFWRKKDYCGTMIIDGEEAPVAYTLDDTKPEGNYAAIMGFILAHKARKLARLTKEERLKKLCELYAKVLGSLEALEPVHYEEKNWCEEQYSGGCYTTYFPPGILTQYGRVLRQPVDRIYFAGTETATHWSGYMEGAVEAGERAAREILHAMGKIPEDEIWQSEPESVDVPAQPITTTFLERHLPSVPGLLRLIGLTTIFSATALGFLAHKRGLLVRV
Description: Inhibition of recombinant human MAO-B expressed in baculovirus infected BTI insect cells using p-tyramine as substrate pretreated for 15 mins followed by substrate addition after 20 mins by Amplex red reagent based fluorimetric method

Homo sapiens = organism: Homo sapiens; experiment: Selectivity index, ratio of IC50 for recombinant human MAO-A expressed in baculovirus infected BTI insect cells to IC50 for recombinant human MAO-B expressed in baculovirus infected BTI insect cells
[4] = Antioxidant activity assessed as trolox equivalent of […]-induced radical scavenging activity at 1 to 10 uM preincubated for 15 mins followed by AAPH addition measured every minute for 120 mins by ORAC fluorescein assay; format: functional
[5] = target: Amyloid-beta precursor protein (Homo sapiens) (UniProt P05067); experiment: Inhibition of HFIP-pretreated amyloid beta (1 to 42) (unknown origin) self-induced aggregation at 20 uM after 46 to 48 hrs by thioflavin-T fluorescence assay relative to control
physchem [6] = conditions: PAMPA
physchem [7] = conditions: PAMPA, pH 7.4
[8] = Metal chelating activity assessed as inhibition of Cu2+-induced amyloid beta (1 to 42 residues) aggregation by measuring reduction in amyloid fibrils at 50 uM […] by uranyl acetate staining based transmission electron microscopic analysis
[9] = Metal chelating activity assessed as inhibition of Cu2+-induced amyloid beta (1 to 42 residues) aggregation at 50 uM after 24 hrs by thioflavin-T fluorescence assay (reference value: 142%)
[10] = target: Amyloid-beta precursor protein (Homo sapiens) (UniProt P05067); experiment: Potency index, ratio of compound effect to curcumin effect for inhibition of HFIP-pretreated amyloid beta (1 to 42) (unknown origin) self-induced aggregation at 20 uM
[11] = Metal chelating activity of the compound assessed as formation of Cu2+-compound complex at 50 uM after 20 mins by fluorescence emission spectral analysis
[12] = Metal chelating activity of the compound assessed as formation of Cu2+-compound complex at 50 uM after 30 mins by UV-vis spectrophotometric method
PC-12 [13] = experiment: Neuroprotective activity against H2O2-induced oxidative stress in rat PC12 cells assessed as reduction in intracellular reactive oxygen species level after 24 hrs by DCFH-DA probe based flow cytometric analysis; format: functional, cell-based
[14] = Metal chelating activity of the compound assessed as formation of ferric-compound complex at 50 uM after 30 mins by UV-vis spectrophotometric method
PC-12 [15] = experiment: Neuroprotective activity against H2O2-induced cell death in rat PC12 cells assessed as increase in cell viability at 10 uM pretreated for 24 hrs followed by H2O2 induction after 24 hrs by MTT assay; format: functional, cell-based
[16] = Metal chelating activity of the compound assessed as formation of zinc-compound complex at 50 uM after 20 mins by fluorescence emission spectral analysis
[17] = Metal chelating activity of the compound assessed as formation of ferrous-compound complex at 50 uM after 30 mins by UV-vis spectrophotometric method
[18] = Metal chelating activity of the compound assessed as formation of ferric-compound complex at 50 uM after 20 mins by fluorescence emission spectral analysis
[19] = Metal chelating activity assessed as mole fraction of compound required to show 1:1 stoichiometry for Cu2+-compound complex by Job's plot method
PC-12 [20] = experiment: Neuroprotective activity against H2O2-induced cell death in rat PC12 cells assessed as increase in cell viability at 20 uM pretreated for 24 hrs followed by H2O2 induction after 24 hrs by MTT assay; format: functional, cell-based
PC-12 [21] = experiment: Neuroprotective activity against H2O2-induced cell death in rat PC12 cells assessed as increase in cell viability at 1 to 5 uM pretreated for 24 hrs followed by H2O2 induction after 24 hrs by MTT assay; format: functional, cell-based
[22] = Metal chelating activity of the compound assessed as formation of ferrous-compound complex at 50 uM after 20 mins by fluorescence emission spectral analysis

Sequence of Amyloid-beta precursor protein (Homo sapiens) (P05067 whole entry): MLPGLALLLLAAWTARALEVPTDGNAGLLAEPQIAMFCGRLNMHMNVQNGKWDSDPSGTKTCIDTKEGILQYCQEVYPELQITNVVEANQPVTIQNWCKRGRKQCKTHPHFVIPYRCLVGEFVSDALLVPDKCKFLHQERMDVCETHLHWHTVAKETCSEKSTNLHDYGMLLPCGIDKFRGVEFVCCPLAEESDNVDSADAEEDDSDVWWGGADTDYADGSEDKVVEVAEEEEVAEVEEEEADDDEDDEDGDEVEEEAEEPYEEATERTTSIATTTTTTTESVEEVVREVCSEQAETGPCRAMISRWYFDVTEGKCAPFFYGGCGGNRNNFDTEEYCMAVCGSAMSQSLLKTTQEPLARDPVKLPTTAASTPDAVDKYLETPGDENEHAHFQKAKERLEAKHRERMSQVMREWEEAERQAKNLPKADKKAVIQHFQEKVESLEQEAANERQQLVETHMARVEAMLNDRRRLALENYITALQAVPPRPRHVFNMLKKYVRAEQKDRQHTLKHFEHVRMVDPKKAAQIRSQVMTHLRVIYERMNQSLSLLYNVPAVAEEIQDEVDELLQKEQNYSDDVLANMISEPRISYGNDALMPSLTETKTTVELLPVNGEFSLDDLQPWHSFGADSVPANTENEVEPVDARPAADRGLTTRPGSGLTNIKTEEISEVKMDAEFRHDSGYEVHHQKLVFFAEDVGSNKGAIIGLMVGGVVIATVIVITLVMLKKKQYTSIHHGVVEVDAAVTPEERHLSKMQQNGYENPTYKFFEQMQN

SMILES	IC50 [1]	IC50 [3]	inhibition [5]	Activity (PC-12 [2])	Ratio IC50 (Homo sapiens)	Activity [4]	further results
O=c1c(/C=N/c2cc(Cl)ccc2O)coc2ccccc12	1.94 µM	19200 nM	68.1%	Non-Toxic	0.11	2.24 equiv	
O=c1c(/C=N/c2ccc(Cl)cc2O)coc2ccccc12	1.42 µM	1780 nM	51.5%	Non-Toxic	0.8	2.36 equiv	
O=c1c(/C=N/c2ccccc2O)coc2ccccc12	6.81 µM	31500 nM	65.2%	Non-Toxic	0.22	2.39 equiv	
O=c1c(/C=N/c2cccc(Cl)c2O)coc2ccccc12	1.65 µM	14500 nM	79.5%	Non-Toxic	0.11	2.01 equiv	
O=c1c(/C=N/c2cc(F)ccc2O)coc2ccc(Br)cc12	3.09 µM	825 nM	79.1%	Non-Toxic	3.75	2.68 equiv	
O=c1c(/C=N/c2ccc(F)cc2O)coc2ccc(Br)cc12	2.72 µM	764 nM	71.5%	Non-Toxic	3.56	2.73 equiv	
NCCc1ccc(O)c(O)c1 [DOPAMINE]							Papp at 16 h (physchem [6]): 1.32 ×10⁻⁶ cm/s; Papp at 18 h, 25 ug/ml (physchem [7]): 0.8 ×10⁻⁶ cm/s
Cc1ccc2occ(/C=N/c3cc(F)ccc3O)c(=O)c2c1	3.83 µM	2340 nM	87.3%	Non-Toxic	1.64	2.92 equiv	
O=c1c(/C=N/c2cc(F)ccc2O)coc2ccccc12	4.65 µM	1780 nM	64.5%	Non-Toxic	2.61	2.6 equiv	
CCn1cc(C(=O)O)c(=O)c2cc(F)c(N3CCNC(C)C3)c(F)c21 (configuration not stated) [LOMEFLOXACIN]							Papp at 16 h (physchem [6]): 3.1 ×10⁻⁶ cm/s; Papp at 18 h, 25 ug/ml (physchem [7]): 1.9 ×10⁻⁶ cm/s
Oc1c(I)cc(Cl)c2cccnc12							inhibition [8]: Active; inhibition [9]: 47.7%
Cc1ccc(O)c(/N=C/c2coc3ccc(Br)cc3c2=O)c1	7.14 µM	1120 nM	89.5%	Non-Toxic	6.38	0.784 equiv	Ratio [10]: 1.9
Cc1ccc(O)c(/N=C/c2coc3ccc(C)cc3c2=O)c1	5.12 µM	816 nM	75.1%	Non-Toxic	6.21	3.62 equiv	Activity [11]: Active; inhibition [8]: Active; Activity [12]: Active; Papp at 16 h (physchem [6]): 4.94 ×10⁻⁶ cm/s; Activity (PC-12 [13]): Dose-dependent effect; Activity [14]: Active; Activity (PC-12 [15]): inactive; Activity [16]: Active; Activity [17]: Active; Activity [18]: Active; Activity [19]: 0.55 molar ratio; Activity (PC-12 [20]): inactive; Activity (PC-12 [21]): Active; inhibition [9]: 60.3%; Activity [22]: Active
O=c1c(/C=N/c2ncccc2O)coc2ccc(Br)cc12	9.81 µM	2920 nM	69.8%	Non-Toxic	3.31	2.97 equiv	
Cc1ccc2occ(/C=N/c3cc(Cl)ccc3O)c(=O)c2c1	2.15 µM	634 nM	71.9%	Non-Toxic	3.39	2.61 equiv	
Oc1ccc(/C=C/c2cc(O)cc(O)c2)cc1			57.2%				inhibition [8]: Active; inhibition [9]: 63.3%
O=c1c(/C=N/c2ncccc2O)coc2ccccc12	7.41 µM	2230 nM	70.8%	Non-Toxic		2.23 equiv	
COc1ccc2[nH]cc(CCNC(C)=O)c2c1						2.05 equiv	
Cc1c(C)c2c(c(C)c1O)CCC(C)(C(=O)O)O2 (configuration not stated)							Activity (PC-12 [15]): Active

More lines, main results first:

IC50 [1]	IC50 [3]	inhibition [5]	SMILES	Activity (PC-12 [2])	Ratio IC50 (Homo sapiens)	Activity [4]	further results
4.55 µM	3280 nM	72.1%	O=c1c(/C=N/c2cc(Cl)ccc2O)coc2ccc(Br)cc12	Non-Toxic	1.39	2.16 equiv	
7.35 µM	2030 nM	63.4%	Cc1ccc2occ(/C=N/c3ncccc3O)c(=O)c2c1	Non-Toxic	3.62	2.03 equiv	
3.35 µM	6420 nM	66.5%	O=c1c(/C=N/c2cc3ccccc3cc2O)coc2ccccc12	Non-Toxic	0.52	1.82 equiv	
4.47 µM	2270 nM	68.1%	O=c1c(/C=N/c2cccc(Cl)c2O)coc2ccc(Br)cc12	Non-Toxic	1.97	2.6 equiv	Papp at 16 h (physchem [6]): 4.81 ×10⁻⁶ cm/s
7.27 µM	1640 nM	71.2%	Cc1ccc2occ(/C=N/c3cc([N+](=O)[O-])ccc3O)c(=O)c2c1	Non-Toxic	4.43	2.73 equiv	
2.62 µM	915 nM	48.3%	Cc1ccc2occ(/C=N/c3ccc(Cl)cc3O)c(=O)c2c1	Non-Toxic	2.86	3.41 equiv	Papp at 16 h (physchem [6]): 5.57 ×10⁻⁶ cm/s; Activity (PC-12 [15]): Active
3.34 µM	1130 nM	58.1%	Cc1ccc(O)c(/N=C/c2coc3ccccc3c2=O)c1	Non-Toxic	2.96	2.43 equiv	
20.8 µM	21400 nM	45.6%	Cc1ccc(/N=C/c2coc3ccc(C)cc3c2=O)c(O)c1	Non-Toxic	0.97	2.48 equiv	
6.26 µM	14300 nM	75.2%	Cc1ccc(/N=C/c2coc3ccccc3c2=O)c(O)c1	Non-Toxic	0.44	2.26 equiv	
3.18 µM	1290 nM	87.6%	O=c1c(/C=N/c2ccc(Cl)cc2O)coc2ccc(Br)cc12	Non-Toxic	2.47	1.92 equiv	
